Test results taken from patent publication US20080200477A1, “Retinoid-Containing Compositions Having Reduced Irritation Effect” (priority 2004, published 2008).

Legend:
[1] = tested on: interleukin-8 (IL8); assay: Retinol-induced interleukin-8 release from reconstituted epidermis (ELISA on culture medium); assay type: cell-based, human; conditions: for % reduction of IL8 release Control + retinol: measured after 48 hours and 96 hours (time not given)
Procedure: Samples of reconstituted epidermis were topically applied with gel/emulsions containing retinol (0.075 wt. %) and a series of test ingredients. The release of interleukin-8 (IL8) was measured in the culture medium after 48 hours by an ELISA method. No significant loss of viability was evidenced. No release of interleukin-1 (IL1) was observed.
Samples of reconstituted epidermis were topically applied with gel/emulsions containing retinol (0.075 wt. %) and one of the following test ingredients: Dragocalm® (at 1.5 wt. % and 3.5 wt. %), dipotassium glycyrrhenzinate (at 0.5 wt. %), Rona Care® ectoine (at 0.1 wt. %, 0.25 wt. %), and a willow herb (0.1 wt. %)/oat straw (0.1 wt. %) extract combination. The release of IL8 was measured in each culture medium after 48 hours and 96 hours by an ELISA method. No significant loss of viability was evidenced. No release of IL1 was observed.

[2] = tested on: retinol induced skin redness; assay: Repeated patch test on backs of human volunteers, cumulated redness score; assay type: in vivo; conditions: for inhibition of retinol-induced redness (in words): concentration not given, retinol 0.1 wt. %, human volunteers; for Score (cumulated redness score): 48 hours patches, three times a week during three weeks
Procedure: Based on the foregoing results, Dragocalm®, ectoine, and dipotassium glycyrrhenzinate were tested further on human volunteers for their potential to reduce retinol induced skin redness. Patches containing formulas comprising either retinol (0.1 wt. %) or retinol (0.1 wt. %) plus the test ingredient Dragocalm®, ectoine, or dipotassium glycyrrhenzinate were applied during 48 hours to the backs of volunteers three times a week during three weeks. Redness induced by the patches was examined and scored after each patch removal. Every individual score for each product were cumulated to give the final scores.

[3] = retinol 0.1 wt. % + test ingredient 0.5 wt. %
[4] = retinol 0.1 wt. % + test ingredient 0.25 wt. %

CCCCCCCCCCCCCCCCCCOC(=O)[C@@]1(C)CC[C@]2(C)CC[C@]3(C)C(=CC(=O)[C@@H]4[C@@]5(C)CC[C@H](O)C(C)(C)[C@@H]5CC[C@]43C)[C@@H]2C1 [Stearyl Glycirrhezinate, reference compound]
% Reduction of Interleukin-8 compared with Control + Retinol ([1]; Example 1, test ingredient 0.1 wt. % in gel/emulsion with retinol 0.075 wt. %, 48 hours): 26%

CC(C)=CCC[C@](C)(O)[C@@H]1CC=C(C)CC1 [Alpha Bisabolol, reference compound]
% Reduction of Interleukin-8 compared with Control + Retinol ([1]; Example 1, test ingredient 0.05 wt. % in gel/emulsion with retinol 0.075 wt. %, 48 hours): −4%

Dipotassium Glycirrhezinate [reference compound]
% Reduction of Interleukin-8 compared with Control + Retinol ([1]; Example 1, test ingredient 0.2 wt. % in gel/emulsion with retinol 0.075 wt. %, 48 hours): −29% | reduction (inhibition) of IL8 release ([1]; Example 2, 0.5 wt. %, retinol 0.075 wt. %): 63% | % reduction of IL8 release Control + retinol ([1]; Example 2, test ingredient 0.5 wt. %, retinol 0.075 wt. %): −63% | inhibition of retinol-induced redness (in words) [2]: not effective | % reduction (of redness score vs Control + Retinol 0.1 wt. %) [2, 3]: −21% | Score (cumulated redness score) [2, 3]: 17

CC1=NC(C(=O)O)CCN1 (centres unmarked) [Rona Care ® Ectoin, 1,4,5,6-tetrahydro-2-methyl-4-pyrimidine carboxylic acid]
decrease of retinol induced IL8 release ([1]; Example 1, 1 wt. %, retinol 0.075 wt. %, 48 hours): 55% | % Reduction of Interleukin-8 compared with Control + Retinol ([1]; Example 1, test ingredient 1 wt. % in gel/emulsion with retinol 0.075 wt. %, 48 hours): −55% | activity on IL8 release (in words) ([1]; Example 2, 0.1 wt. %, retinol 0.075 wt. %): no activity | reduction (inhibition) of IL8 release ([1]; Example 2, 0.25 wt. %, retinol 0.075 wt. %): 60% | % reduction of IL8 release Control + retinol ([1]; Example 2, test ingredient 0.1 wt. %, retinol 0.075 wt. %): −31% | % reduction of IL8 release Control + retinol ([1]; Example 2, test ingredient 0.25 wt. %, retinol 0.075 wt. %): −60% | inhibition of retinol-induced redness (in words) [2]: reduced redness but to a lesser extent | % reduction (of redness score vs Control + Retinol 0.1 wt. %) [2, 4]: −56% | Score (cumulated redness score) [2, 4]: 9.5
